In PubChem BioAssay AID250 (DTP/NCI, 2004):
Several values for one entry are separate records, joined by “and”; a condition that tells them apart may be missing. Equal entries are not always repeated. Toxic doses and inconclusive results are not listed. How the source made its calls: active means survival T/C of 150% or more; inactive means T/C below 125% in these data. Square brackets hold non-standard residues; d marks the D form. Peptide text beside a SMILES is read from it. Ac5c = NC1(C(=O)O)CCCC1

Test system: BDF1 mice, L1210 leukemia sc, survival T/C
Assay: NCI In Vivo Anticancer Drug Screen. Data for tumor model L1210 Leukemia (subcutaneous) in B6D2F1 (BDF1) mice
Settings: higher = longer survival
Procedure, shortened: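 Expressed as T/C: measurement in compound-treated, tumor-bearing mice relative to vehicle-treated control mice, based on survival or tumor size.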

Measured: T/C

Nc1n[nH]c(N)n1
active: endpoint: median survival time, dose: 500.0 mg/kg/injection, schedule: Q03HX024 (ip), vehicle: water 177 % of control | endpoint: median survival time, dose: 500.0 mg/kg/injection, schedule: Q03HX024 (sc), vehicle: water 166 % of control | endpoint: median survival time, dose: 500.0 mg/kg/injection, schedule: Q#A X018 (sc), vehicle: none 160 % of control | endpoint: median survival time, dose: 1000.0 mg/kg/injection, schedule: Q08DX009 (sc), vehicle: none 150 % of control | endpoint: median survival time, dose: 2000.0 mg/kg/injection, schedule: Q01DX Z (sc), vehicle: water 150 % of control | endpoint: median survival time, dose: 4000.0 mg/kg/injection, schedule: Q08DX009 (sc), vehicle: none 150 % of control
inactive: endpoint: median survival time, dose: 125.0 mg/kg/injection, schedule: Q03HX024 (sc), vehicle: none 110 % of control | endpoint: median survival time, dose: 180.0 mg/kg/injection, schedule: Q03HX024 (ip), vehicle: water 116 % of control | endpoint: median survival time, dose: 180.0 mg/kg/injection, schedule: Q03HX024 (sc), vehicle: water 122 % of control | endpoint: median survival time, dose: 250.0 mg/kg/injection, schedule: Q03HX024 (sc), vehicle: none 120 % of control | endpoint: median survival time, dose: 250.0 mg/kg/injection, schedule: Q#A X018 (sc), vehicle: none 120 % of control | endpoint: median survival time, dose: 432.0 mg/kg/injection, schedule: Q01DX Z (sc), vehicle: water 104 % of control | endpoint: median survival time, dose: 500.0 mg/kg/injection, schedule: Q04DX003 (sc), vehicle: none 110 % of control | endpoint: median survival time, dose: 720.0 mg/kg/injection, schedule: Q01DX Z (sc), vehicle: water 109 % of control | endpoint: median survival time, dose: 1000.0 mg/kg/injection, schedule: Q03HX024 (sc), vehicle: none 110 % of control | endpoint: median survival time, dose: 1000.0 mg/kg/injection, schedule: Q04DX003 (sc), vehicle: none 110 % of control | endpoint: median survival time, dose: 1000.0 mg/kg/injection, schedule: Q#A X018 (sc), vehicle: none 100 % of control | endpoint: median survival time, dose: 2000.0 mg/kg/injection, schedule: Q04DX003 (sc), vehicle: none 115 % of control | endpoint: median survival time, dose: 2000.0 mg/kg/injection, schedule: Q#A X018 (sc), vehicle: none 90 % of control | endpoint: median survival time, dose: 4000.0 mg/kg/injection, schedule: Q04DX003 (sc), vehicle: none 120 % of control

NCC(=O)NC1(C(=O)O)CCCC1 (H-Gly-[Ac5c]-OH)
inactive: endpoint: median survival time, dose: 55.0 mg/kg/injection, schedule: Q01DX Z (sc), vehicle: water 105 % of control | endpoint: median survival time, dose: 91.0 mg/kg/injection, schedule: Q01DX Z (sc), vehicle: water 105 % of control | endpoint: median survival time, dose: 152.0 mg/kg/injection, schedule: Q01DX Z (sc), vehicle: water 105 % of control
active: endpoint: median survival time, dose: 253.0 mg/kg/injection, schedule: Q01DX Z (sc), vehicle: water 157 % of control

COC(=O)c1[nH]c(=O)[nH]c(=O)c1F
inactive: endpoint: median survival time, dose: 5.0 mg/kg/injection, schedule: Q01DX Z (sc), vehicle: methylcellulose (MC) 111 % of control
active: endpoint: median survival time, dose: 10.0 mg/kg/injection, schedule: Q01DX Z (sc), vehicle: methylcellulose (MC) 158 % of control | endpoint: median survival time, dose: 20.0 mg/kg/injection, schedule: Q01DX Z (sc), vehicle: methylcellulose (MC) 164 % of control | endpoint: median survival time, dose: 40.0 mg/kg/injection, schedule: Q01DX Z (sc), vehicle: methylcellulose (MC) 158 % of control | endpoint: median survival time, dose: 80.0 mg/kg/injection, schedule: Q01DX Z (sc), vehicle: methylcellulose (MC) 152 % of control

Nc1ccc(OC(=O)Oc2ccc(N)cc2)cc1
inactive: endpoint: median survival time, dose: 180.0 mg/kg/injection, schedule: Q01DX Z (sc), vehicle: carboxymethylcellulose (CMC) 111 % of control | endpoint: median survival time, dose: 833.0 mg/kg/injection, schedule: Q01DX Z (sc), vehicle: carboxymethylcellulose (CMC) 100 % of control

OC(CBr)C(O)C(O)C(O)CBr (stereo not given)
inactive: endpoint: median survival time, dose: 108.0 mg/kg/injection, schedule: Q01DX009 (ip), vehicle: steriod suspending solution 105 % of control | endpoint: median survival time, dose: 108.0 mg/kg/injection, schedule: Q01DX009 (sc), vehicle: steriod suspending solution 100 % of control | endpoint: median survival time, dose: 180.0 mg/kg/injection, schedule: Q01DX009 (ip), vehicle: steriod suspending solution 116 % of control | endpoint: median survival time, dose: 180.0 mg/kg/injection, schedule: Q01DX009 (sc), vehicle: steriod suspending solution 111 % of control | endpoint: median survival time, dose: 180.0 mg/kg/injection, schedule: Q04DX003 (ip), vehicle: steriod suspending solution 100 % of control | endpoint: median survival time, dose: 180.0 mg/kg/injection, schedule: Q04DX003 (sc), vehicle: steriod suspending solution 105 % of control | endpoint: median survival time, dose: 300.0 mg/kg/injection, schedule: Q01DX009 (ip), vehicle: steriod suspending solution 122 % of control | endpoint: median survival time, dose: 300.0 mg/kg/injection, schedule: Q01DX009 (sc), vehicle: steriod suspending solution 116 % of control | endpoint: median survival time, dose: 300.0 mg/kg/injection, schedule: Q04DX003 (ip), vehicle: steriod suspending solution 111 % of control | endpoint: median survival time, dose: 300.0 mg/kg/injection, schedule: Q04DX003 (sc), vehicle: steriod suspending solution 111 % of control | endpoint: median survival time, dose: 500.0 mg/kg/injection, schedule: Q04DX003 (ip), vehicle: steriod suspending solution 100 % of control | endpoint: median survival time, dose: 500.0 mg/kg/injection, schedule: Q04DX003 (sc), vehicle: steriod suspending solution 105 % of control | endpoint: median survival time, dose: 833.0 mg/kg/injection, schedule: Q04DX003 (ip), vehicle: steriod suspending solution 122 % of control | endpoint: median survival time, dose: 833.0 mg/kg/injection, schedule: Q04DX003 (sc), vehicle: steriod suspending solution 122 % of control | endpoint: median survival time, dose: 1388.0 mg/kg/injection, schedule: Q01DX009 (sc), vehicle: other 111 % of control | endpoint: median survival time, dose: 1388.0 mg/kg/injection, schedule: Q01DX009 (sc), vehicle: steriod suspending solution 110 % of control | endpoint: median survival time, dose: 1388.0 mg/kg/injection, schedule: Q01DX015 (sc), vehicle: other 110 % of control | endpoint: median survival time, dose: 1388.0 mg/kg/injection, schedule: Q01DX015 (sc), vehicle: steriod suspending solution 110 % of control
active: endpoint: median survival time, dose: 500.0 mg/kg/injection, schedule: Q01DX009 (sc), vehicle: steriod suspending solution 155 % of control

COC12C(COC(N)=O)C3=C(C(=O)C(C)=C(N)C3=O)N1CC1C2N1C (stereo not given)
inactive: endpoint: median survival time, dose: 1.8 mg/kg/injection, schedule: Q01DX Z (sc), vehicle: saline 100 % of control | endpoint: median survival time, dose: 2.0 mg/kg/injection, schedule: Q01DX009 (ip), vehicle: saline 101 % of control | endpoint: median survival time, dose: 2.0 mg/kg/injection, schedule: Q01DX009 (sc), vehicle: saline 103 % of control and 106 % of control | endpoint: median survival time, dose: 3.0 mg/kg/injection, schedule: Q01DX Z (sc), vehicle: saline 100 % of control | endpoint: median survival time, dose: 4.0 mg/kg/injection, schedule: Q01DX009 (ip), vehicle: saline 106 % of control | endpoint: median survival time, dose: 4.0 mg/kg/injection, schedule: Q01DX009 (sc), vehicle: saline 104 % of control and 105 % of control | endpoint: median survival time, dose: 5.0 mg/kg/injection, schedule: Q01DX Z (sc), vehicle: saline 100 % of control | endpoint: median survival time, dose: 8.0 mg/kg/injection, schedule: Q01DX009 (ip), vehicle: saline 116 % of control | endpoint: median survival time, dose: 8.0 mg/kg/injection, schedule: Q01DX009 (sc), vehicle: saline 107 % of control and 112 % of control | endpoint: median survival time, dose: 8.4 mg/kg/injection, schedule: Q01DX Z (sc), vehicle: saline 100 % of control | endpoint: median survival time, dose: 16.0 mg/kg/injection, schedule: Q01DX009 (sc), vehicle: saline 116 % of control | endpoint: median survival time, dose: 32.0 mg/kg/injection, schedule: Q01DX009 (sc), vehicle: saline 92 % of control and 117 % of control

CS(=O)(=O)Nc1ccc(Nc2c3ccccc3nc3cc([N+](=O)[O-])ccc23)cc1
inactive: endpoint: mean survival time, dose: 1.25 mg/kg/injection, schedule: Q01DX009 (ip), vehicle: Klucel (hydroxypropylcellulose) (HPC) 108 % of control | endpoint: mean survival time, dose: 1.25 mg/kg/injection, schedule: Q01DX009 (sc), vehicle: Klucel (hydroxypropylcellulose) (HPC) 121 % of control | endpoint: mean survival time, dose: 2.5 mg/kg/injection, schedule: Q01DX009 (ip), vehicle: Klucel (hydroxypropylcellulose) (HPC) 107 % of control | endpoint: mean survival time, dose: 2.5 mg/kg/injection, schedule: Q01DX009 (sc), vehicle: Klucel (hydroxypropylcellulose) (HPC) 108 % of control | endpoint: mean survival time, dose: 5.0 mg/kg/injection, schedule: Q01DX009 (ip), vehicle: Klucel (hydroxypropylcellulose) (HPC) 106 % of control | endpoint: mean survival time, dose: 5.0 mg/kg/injection, schedule: Q01DX009 (sc), vehicle: Klucel (hydroxypropylcellulose) (HPC) 112 % of control

OCC1OC(n2cnc3cc(Cl)c(Cl)cc32)C(O)C1O (stereo not given)
inactive: endpoint: median survival time, dose: 23.0 mg/kg/injection, schedule: Q01DX Z (sc), vehicle: methylcellulose (MC) 95 % of control | endpoint: median survival time, dose: 23.0 mg/kg/injection, schedule: Q01DX Z (sc), vehicle: water 95 % of control | endpoint: median survival time, dose: 39.0 mg/kg/injection, schedule: Q01DX Z (sc), vehicle: methylcellulose (MC) 95 % of control | endpoint: median survival time, dose: 39.0 mg/kg/injection, schedule: Q01DX Z (sc), vehicle: water 105 % of control | endpoint: median survival time, dose: 65.0 mg/kg/injection, schedule: Q01DX Z (sc), vehicle: methylcellulose (MC) 100 % of control | endpoint: median survival time, dose: 65.0 mg/kg/injection, schedule: Q01DX Z (sc), vehicle: water 100 % of control | endpoint: median survival time, dose: 108.0 mg/kg/injection, schedule: Q01DX Z (sc), vehicle: methylcellulose (MC) 90 % of control and 100 % of control | endpoint: median survival time, dose: 108.0 mg/kg/injection, schedule: Q01DX Z (sc), vehicle: water 95 % of control | endpoint: median survival time, dose: 180.0 mg/kg/injection, schedule: Q01DX Z (sc), vehicle: methylcellulose (MC) 100 % of control and 105 % of control | endpoint: median survival time, dose: 180.0 mg/kg/injection, schedule: Q01DX Z (sc), vehicle: water 100 % of control | endpoint: median survival time, dose: 300.0 mg/kg/injection, schedule: Q01DX Z (sc), vehicle: methylcellulose (MC) 105 % of control | endpoint: median survival time, dose: 500.0 mg/kg/injection, schedule: Q01DX Z (sc), vehicle: methylcellulose (MC) 100 % of control
